Consider 41 molecules from patent publication US9745328B2, “Flap modulators” (JANSSEN PHARMACEUTICA NV, priority 2013, dated 2017).

The test concerns the target human FLAP (Homo sapiens (Human), UniProt P20292). Put plainly: FLAP binding assay (HTRF format). Conditions: human FLAP wild type, Table 6 (additional runs). Put shortly: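 Reported data take the mean of two different plates carrying duplicate samples and use the HTRF ratio as the measured signal.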
(In general: In TR-FRET formats the signal depends on donor and acceptor labels being close together.)

Broadly, the Ki is the dissociation constant of the complex between target and ligand, obtained from inhibition or displacement. Read a high Ki as a looser hold on the target.

Structures can show the parent of a compound that is named as a salt.

Sequence of human FLAP (P20292 whole entry): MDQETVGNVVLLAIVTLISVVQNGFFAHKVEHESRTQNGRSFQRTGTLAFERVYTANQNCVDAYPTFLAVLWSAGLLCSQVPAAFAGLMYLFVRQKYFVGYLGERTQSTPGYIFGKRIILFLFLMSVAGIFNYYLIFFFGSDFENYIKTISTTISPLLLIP

For the molecule `Fc1cc(-c2cccnc2OCC2CC2)ccc1-c1cnc2[nH]ccc2n1` [Example 400, 2-{4-[2-(Cyclopropylmethoxy)pyridin-3-yl]-2-fluorophenyl}-5H-pyrrolo[2,3-b]pyrazine], the inhibition constant (Ki) is 14.1 nM. `Nc1cnc(-c2ccc(-c3cccnc3OC3CCCCC3)cc2F)cn1` [Example 403, 5-{4-[2-(Cyclohexyloxy)pyridin-3-yl]-2-fluorophenyl}pyrazin-2-amine] registered a Ki of 69.8 nM.

Regarding `N#Cc1nc(-c2ccc(-c3ccccc3S(=O)(=O)NCCO)cc2F)cnc1N` [Example 413, 4′-(5-Amino-6-cyanopyrazin-2-yl)-3′-fluoro-N-(2-hydroxyethyl)biphenyl-2-sulfonamide], the Ki came to 18.6 nM. Molecule `N#Cc1nc(-c2ccc(-c3ccccc3S(=O)(=O)N3CCNC(=O)C3)cc2F)cnc1N` [Example 414, 3-Amino-6-{3-fluoro-2′-[(3-oxopiperazin-1-yl)sulfonyl]biphenyl-4-yl}pyrazine-2-carbontrile] gave a Ki of 65.5 nM. Compared with the last molecule, the Ki is about 3.5-fold higher. `CC(C)(C)NS(=O)(=O)c1ccccc1-c1ccc(-c2cnc3ncccc3c2)c(F)c1` [Example 419, N-tert-Butyl-3′-fluoro-4′-(1,8-naphthyridin-3-yl)biphenyl-2-sulfonamide]: the Ki is ~1370 nM. Take `CC(C)(C)NS(=O)(=O)c1ccccc1-c1ccc(-c2ccc3[nH]ccc3c2)c(F)c1` [Example 421, N-tert-Butyl-3′-fluoro-4′-(1H-indol-5-yl)biphenyl-2-sulfonamide]: the inhibitory constant (Ki) was 28.3 nM. The same measure for `CC(C)(C)NS(=O)(=O)c1ccccc1-c1ccc(-c2cnc3cc[nH]c3c2)c(F)c1` [Example 425, N-tert-Butyl-3′-fluoro-4′-(1H-pyrrolo[3,2-b]pyridin-6-yl)biphenyl-2-sulfonamide]: 2.3 nM. For the molecule `CC(C)(C)NS(=O)(=O)c1ccccc1-c1ccc(-c2ccc(N)cn2)c(F)c1` [Example 427, 4′-(5-Aminepyridin-2-yl)-N-tert-butyl-3′-fluoro-biphenyl-2-sulfonamide], the Ki came out at 43.9 nM.

Molecule `CC(C)(C)NS(=O)(=O)c1ccccc1-c1ccc(-c2cnc(N)c(F)c2)c(F)c1` [Example 430, 4′-(6-Amino-5-fluoropyridin-3-yl)-N-tert-butyl-3′-fluorobiphenyl-2-sulfonamide] yielded a Ki of 5.1 nM. `CC(C)(C)NS(=O)(=O)c1ccccc1-c1ccc(-c2cnc3c(c2)CCN3)c(F)c1` [Example 431, N-tert-Butyl-4′-(2,3-dihydro-1H-pyrrolo[2,3-b]pyridin-5-yl)-3′-fluorobiphenyl-2-sulfonamide] displayed a Ki of 0.8 nM. With `COc1nc(-c2ccc(-c3ccccc3S(=O)(=O)NC(C)(C)C)cc2F)cnc1N` [Example 433, 4′-(5-Amino-6-methoxypyrazin-2-yl)-N-tert-butyl-3′-fluorobiphenyl-2-sulfonamide], the Ki is 1.1 nM. For `CC(C)(C)NS(=O)(=O)c1ccccc1-c1ccc(-c2cnc(N)c(C#N)n2)c(F)c1` [Example 434, 4′-(5-Amino-6-cyanopyrazin-2-yl)-N-tert-butyl-3′-fluorobiphenyl-2-sulfonamide] the value was 1.1 nM; for `CC(C)(C)NS(=O)(=O)c1ccccc1-c1ccc(-c2nnc(N)s2)c(F)c1` [Example 438, 4′-(5-amino-1,3,4-thiadiazol-2-yl)-N-(tert-butyl)-3′-fluoro-[1,1′-biphenyl]-2-sulfonamide], 0.7 nM; for `CC(C)(C)NS(=O)(=O)c1ccccc1-c1ccc(-c2cnc(N)c(Br)n2)c(F)c1` [Example 442, 4′-(5-Amino-6-bromopyrazin-2-yl)-N-tert-butyl-3′-fluorobiphenyl-2-sulfonamide], 0.9 nM. Molecule `Cc1nc(-c2ccc(-c3ccccc3S(=O)(=O)NC(C)(C)C)cc2F)cnc1N` [Example 445, 4′-(5-Amino-6-methylpyrazin-2-yl)-N-tert-butyl-3′-fluorobiphenyl-2-sulfonamide] yielded a Ki of 0.5 nM.

Molecule `Cc1nc(-c2ccc(-c3ccccc3S(N)(=O)=O)cc2F)cnc1N` [Example 446, 4′-(5-Amino-6-methylpyrazin-2-yl)-3′-fluorobiphenyl-2-sulfonamide] had a Ki of 304 nM. Consider `CC(C)(C)NS(=O)(=O)c1ccccc1-c1ccc(-c2cnc(N)c(Cl)c2)c(F)c1` [Example 451, 4′-(6-Amino-5-chloropyridin-3-yl)-N-tert-butyl-3′-fluorobiphenyl-2-sulfonamide trifluoroacetic acid salt], for which the Ki turned out to be 2.4 nM. The same measure for `CC(C)(C)NS(=O)(=O)c1ccccc1-c1ccc(-c2cnc3[nH]cc(CO)c3c2)c(F)c1` [Example 455, N-tert-Butyl-3′-fluoro-4′-[3-(hydroxymethyl)-1H-pyrrolo[2,3-b]pyridin-5-yl]biphenyl-2-sulfonamide]: 0.7 nM. For `Nc1cc(-c2ccc(-c3ccccc3S(=O)(=O)NC3(CO)CCCC3)cc2F)cc2cc[nH]c12` [Example 456, 4′-(7-Amino-1H-indol-5-yl)-3′-fluoro-N-[1-(hydroxymethyl)cyclopentyl]biphenyl-2-sulfonamide], the Ki came to 2.6 nM. The same measure for `CNS(=O)(=O)c1ccccc1-c1ccc(-c2cnc3[nH]cc(CO)c3c2)c(F)c1` [Example 457, 3′-Fluoro-4′-[3-(hydroxymethyl)-1H-pyrrolo[2,3-b]pyridin-5-yl]-N-methylbiphenyl-2-sulfonamide]: 2.7 nM; for `CC(C)(C)NS(=O)(=O)c1ccccc1-c1ccc(-c2cc(N)c3[nH]ccc3c2)c(F)c1` [Example 458, 4′-(7-Amino-1H-indol-5-yl)-N-tert-butyl-3′-fluorobiphenyl-2-sulfonamide]: 4.2 nM; for `CC(C)(C)NS(=O)(=O)c1ccccc1-c1ccc(-c2cnc(N)cn2)c(F)c1F` [Example 462, 4′-(5-Aminopyrazin-2-yl)-N-tert-butyl-2′,3′-difluorobipnenyl-2-sulfonamide]: 2.3 nM. `Nc1cnc(-c2ccc(-c3ccccc3S(N)(=O)=O)c(F)c2F)cn1` [Example 464, 4′-(5-Aminopyrazin-2-yl)-2′,3′-difluorobiphenyl-2-sulfonamide] showed a Ki of 121 nM. For the molecule `CC(C)(C)NS(=O)(=O)c1ccccc1-c1ccc(-c2cnc(N)nc2)c(F)c1F` [Example 466, 4′-(2-Aminopyrimidin-5-yl)-N-tert-butyl-2′,3′-difluorobipenyl-2-sulfonamide trifluoroacetic acid salt], the Ki was ~254 nM.

Take `Nc1cnc(-c2ccc(-c3ccc(OC(F)(F)F)cc3F)cc2F)cn1` [Example 467, 5-[2′,3-Difluoro-4′-(trifluoromethoxy)biphenyl-4-yl]pyrazin-2-amine]: the affinity corresponds to a Ki of 53.5 nM. This lies in the double-digit nanomolar range. Molecule `Nc1cnc(-c2ccc(-c3ccccc3F)cc2F)cn1` [Example 468, 5-(2′,3-Difluorobiphenyl-4-yl)pyrazin-2-amine] yielded a Ki of 332 nM.

`Nc1cnc(-c2ccc(-c3ccccc3Cl)cc2F)cn1` [Example 469, 5-(2′-Chloro-3-fluorobiphenyl-4-yl)pyrazin-2-amine] came in with a Ki of 179 nM. As to `Cc1ccccc1-c1ccc(-c2cnc(N)cn2)c(F)c1` [Example 470, 5-(3-Fluoro-2′-methylbiphenyl-4-yl)pyrazin-2-amine], the affinity, expressed as Ki, was 397 nM. Take `Nc1cnc(-c2ccc(-c3ccc(C(F)(F)F)cc3F)cc2F)cn1` [Example 471, 5-[2′,3-Difiuoro-4′-(trifluoromethyl)biphenyl-4-yl]pyrazin-2-amine]: the inhibition constant (Ki) came out at 55.8 nM. As to `Nc1cnc(-c2ccc(-c3ccccc3C(F)(F)F)cc2F)cn1` [Example 472, 5-[3-Fluoro-2′-(trifluoromethyl)biphenyl-4-yl]pyrazin-2-amine], the Ki is 136 nM. In turn, `COc1ccccc1-c1ccc(-c2cnc(N)cn2)c(F)c1` [Example 473, 5-(3-Fluoro-2′-methoxybiphenyl-4-yl)pyrazin-2-amine] showed a Ki of 73 nM. `Nc1cnc(-c2ccc(-c3ccccc3NS(=O)(=O)c3ccccc3)cc2F)cn1` [Example 479, N-[4′-(5-Aminopyrazin-2-yl)-3′-fluorobiphenyl-2-yl]benzenesulfonamide] displayed an inhibitory constant (Ki) of 7.7 nM.

For the molecule `Nc1cnc(-c2ccc(-c3ccccc3OCC(=O)O)cc2F)cn1` [Example 481, {[4′-(5-Aminopyrazin-2-yl)-3′-fluorobiphenyl-2-yl]oxy}acetic acid], the Ki is 1910 nM. On to `CC(=O)c1ccccc1-c1ccc(-c2cnc(N)cn2)c(F)c1` [Example 483, 1-[4′-(5-Aminopyrazin-2-yl)-3′-fluorobiphenyl-2-yl]ethanone], for which the Ki is ~354 nM. Regarding `CS(=O)(=O)c1cc(F)ccc1-c1ccc(-c2cnc3[nH]ccc3n2)c(F)c1` [Example 489, 2-[3,4′-Difluoro-2′-(methylsulfonyl)biphenyl-4-yl]-5H-pyrrolo[2,3-b]pyrazine], the affinity, expressed as Ki, was 19.6 nM. This lies in the double-digit nanomolar range. Turning to `CC(C)(C)NC(=O)c1ccccc1-c1ccc(-c2cnc(N)cn2)c(F)c1` [Example 501, 4′-(5-Aminopyrazin-2-yl)-N-tert-butyl-3′-fluorobiphenyl-2-carboxamide], the affinity, expressed as Ki, was 359 nM. Consider `Nc1cnc(-c2ccc(-c3ccc(C(F)(F)F)cc3C(=O)N3CCOCC3)cc2F)cn1` [Example 521, 5-[3-Fluoro-2′-(morpholin-4-ylcarbonyl)-4′-(trifluoromethyl)biphenyl-4-yl]pyrazin-2-amine], for which the Ki is 5.4 nM. For `Nc1nccc(Oc2ccccc2-c2ccc(-c3cnc4[nH]ccc4c3)c(F)c2)n1` [Example 523, 4-{[3′-Fluoro-4′-(1H-pyrrolo[2,3-b]pyridin-5-yl)biphenyl-2-yl]oxy}pyrimidin-2-amine], the inhibitory constant (Ki) was determined as 1.3 nM.

`Nc1ccnc(Oc2ccccc2-c2ccc(-c3cnc4[nH]ccc4c3)c(F)c2)n1` [Example 524, 2-{[3′-Fluoro-4′-(1H-pyrrolo[2,3-b]pyridin-5-yl)biphenyl-2-yl]oxy}pyrimidin-4-amine]: the Ki was determined as 0.7 nM. `Nc1cnc(-c2ccc(-c3ccccc3Oc3ncccn3)cc2F)cn1` [Example 526, 5-[3-Fluoro-2′-(pyrimidin-2-yloxy)biphenyl-4-yl]pyrazin-2-amine] displayed a Ki of 8.3 nM. In turn, `Nc1cnc(-c2ccc(-c3ccccc3Oc3nccc(N)n3)cc2F)cn1` [Example 528, 2-{[4′-(5-Aminopyrazin-2-yl)-3′-fluorobiphenyl-2-yl]oxy}pyrimidin-4-amine] came in with a Ki of 5.5 nM.
